The results in this text go back to US20260028335A1, “NOVEL ISOTHIAZOL-3-YL AND ISOXAZOL-3-YL SULFONAMIDE COMPOUNDS” (Hoffmann-La Roche Inc., priority 2022, published 2026).

The term IC50 denotes the midpoint of a concentration-inhibition curve. The low end stands for inhibition by little substance, the high end for a need for much substance.

Structures are written as SMILES.

Chain of human GPR17 short isoform (Q13304 29-367): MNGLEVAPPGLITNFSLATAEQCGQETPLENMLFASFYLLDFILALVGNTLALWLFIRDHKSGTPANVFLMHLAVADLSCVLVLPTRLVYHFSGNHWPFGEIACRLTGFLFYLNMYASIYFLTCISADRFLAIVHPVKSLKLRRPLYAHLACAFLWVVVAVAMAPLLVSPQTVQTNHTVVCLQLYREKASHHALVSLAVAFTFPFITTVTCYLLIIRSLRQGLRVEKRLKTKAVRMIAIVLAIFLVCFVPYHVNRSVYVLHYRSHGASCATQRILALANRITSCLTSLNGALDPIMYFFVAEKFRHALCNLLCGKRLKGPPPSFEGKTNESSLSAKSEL

The target in this assay is human GPR17 short isoform (Homo sapiens, UniProt Q13304). Kind of assay: GPR17 cAMP assay (hGPR17 cAMP, antagonist mode, TR-FRET). It counts as cell-based. To be noted: CHO-K1 cells stably expressing human GPR17 short isoform; EC80 of agonist MDL29,951; forskolin 15 μM; IBMX 0.5 mM. Here is the method:
GPR17 cAMP Assay Protocol:
CHO-K1 cells stably expressing vector containing untagged human GPR17 short isoform (Roche) were cultured at 37° C./5% CO2 in DMEM (Dulbecco's Modified Eagle Medium):F-12 (1:1) supplemented with 10% foetal bovine serum and 400 μg/ml Geneticin.
Changes in intracellular cyclic adenosine monophosphate (cAMP) levels were quantified using the Nano-TRF Detection Assay kit (Roche Diagnostics, Cat. No. 05214386001). This assay allows for direct cAMP quantification in a homogeneous solution. cAMP is detected based on time-resolved fluorescence energy transfer (TR-FRET) and competitive binding of ruthenylated cAMP and endogenous cAMP to an anti-cAMP monoclonal antibody labeled with AlexaFluor-700. The Ruthenium complex serves as the FRET donor and transfers energy to AlexaFluor-700. The FRET signal is inversely proportional to the cAMP concentration.
CHO-GPR17S cells were detached with Accutase and resuspended in assay buffer consisting of Hank's Balanced Salt Solution (HBSS), 10 mM HEPES (4-(2-hydroxyethyl) piperazine-1-ethanesulfonic acid solution) and 0.1% bovine serum albumin (pH 7.4). The cells were seeded in black 384-well plates (Corning) at a density of 10,000 cells/20 μl assay buffer until the addition of compounds.
Test antagonist compounds were serially diluted in dimethyl sulfoxide (DMSO) and spotted in 384-well plates. The compounds were then diluted in HBSS buffer supplemented with an EC80 concentration of MDL29,951 (3-(2-Carboxy-4,6-dichloroindol-3-yl)propionic acid) (GPR17 agonist) plus 3-Isobutyl-1-methylxanthine (IBMX) (0.5 mM final concentration) and added to the cells at room temperature. Forskolin (15 μM final concentration) was added 5 minutes after the test compounds and the cells were incubated at room temperature for 30 minutes. The assay was stopped by adding cAMP detection mix (containing detergents for cell lysis) for 90 minutes at room temperature.
Cellular cAMP was measured using a Paradigm reader (Molecular Devices). The raw data was used to calculate the FRET signal based on the assay's P-factor as per cAMP kit instructions. The data was normalized to the maximal activity of a reference antagonist and dose response curves were fitted to the percent activity of the test compounds using a sigmoidal dose response model (Genedata Screener).
Results in the hGPR17 cAMP assay are provided for compounds of formula I in Table 1
For orientation: Cyclic AMP is a second messenger, typically raised through Gs and lowered through Gi signalling.
On to `CCCc1snc(NS(=O)(=O)c2c[nH]c3cc(Cl)ccc23)c1Cl` [Example 1, 6-chloro-N-(4-chloro-5-propyl-isothiazol-3-yl)-1H-indole-3-sulfonamide], for which the 50% inhibitory concentration (IC50) turned out to be 19 nM.
On to `O=S(=O)(Nc1nsc(C2CC2)c1Cl)c1c[nH]c2cc(Cl)ccc12` [Example 2, 6-chloro-N-(4-chloro-5-cyclopropyl-isothiazol-3-yl)-1H-indole-3-sulfonamide], for which the concentration for half-maximal inhibition (IC50) turned out to be 51 nM.
With `O=S(=O)(Nc1nsc(C2CC2)c1Cl)c1c[nH]c2nc(Cl)ccc12` [Example 3, 6-chloro-N-(4-chloro-5-cyclopropyl-isothiazol-3-yl)-1H-pyrrolo[2,3-b]pyridine-3-sulfonamide] the figure was 131 nM.
For `O=S(=O)(Nc1nsc(C2CC2)c1Cl)c1c[nH]c2nc(Br)ccc12` [Example 4, 6-bromo-N-(4-chloro-5-cyclopropyl-isothiazol-3-yl)-1H-pyrrolo[2,3-b]pyridine-3-sulfonamide] the value was 103 nM; for `Cc1snc(NS(=O)(=O)c2c[nH]c3cc(Cl)ccc23)c1Cl` [Example 5, 6-chloro-N-(4-chloro-5-methyl-isothiazol-3-yl)-1H-indole-3-sulfonamide], 106 nM.
As to `Cc1snc(NS(=O)(=O)c2c[nH]c3cc(Cl)ccc23)c1C` [Example 6, 6-chloro-N-(4,5-dimethylisothiazol-3-yl)-1H-indole-3-sulfonamide], the IC50 is 216 nM.
`CCc1onc(NS(=O)(=O)c2c[nH]c3cc(Cl)ccc23)c1C` [Example 7, 6-chloro-N-(5-ethyl-4-methyl-isoxazol-3-yl)-1H-indole-3-sulfonamide] showed an IC50 of 452 nM.
`CCc1snc(NS(=O)(=O)c2c[nH]c3cc(Cl)ccc23)c1Cl` [Example 8, 6-chloro-N-(4-chloro-5-ethyl-isothiazol-3-yl)-1H-indole-3-sulfonamide] registered a 50% inhibitory concentration (IC50) of 105 nM.
`CCc1c(NS(=O)(=O)c2c[nH]c3cc(Cl)ccc23)nsc1C` [Example 9, 6-chloro-N-(4-ethyl-5-methyl-isothiazol-3-yl)-1H-indole-3-sulfonamide] yielded an IC50 of 659 nM.
The molecule `COc1snc(NS(=O)(=O)c2c[nH]c3cc(Cl)ccc23)c1Cl` [Example 10, 6-chloro-N-(4-chloro-5-methoxy-isothiazol-3-yl)-1H-indole-3-sulfonamide] yielded an IC50 of 113 nM. Compared with the last molecule, the IC50 is about 5.8-fold lower.
Take `CCOc1snc(NS(=O)(=O)c2c[nH]c3cc(Cl)ccc23)c1Cl` [Example 11, 6-chloro-N-(4-chloro-5-ethoxy-isothiazol-3-yl)-1H-indole-3-sulfonamide]: the concentration for half-maximal inhibition (IC50) was 54 nM.
Regarding `N#CCCc1snc(NS(=O)(=O)c2c[nH]c3cc(Cl)ccc23)c1Cl` [Example 12, 6-chloro-N-[4-chloro-5-(2-cyanoethyl)isothiazol-3-yl]-1H-indole-3-sulfonamide], the IC50 was found to be 74 nM.
`Cc1cc(NS(=O)(=O)c2c[nH]c3cc(Cl)ccc23)ns1` [Example 13, 6-chloro-N-(5-methylisothiazol-3-yl)-1H-indole-3-sulfonamide] displayed an IC50 of 629 nM.
In turn, `Cc1snc(NS(=O)(=O)c2c[nH]c3cc(Cl)ccc23)c1C1CC1` [Example 14, 6-chloro-N-(4-cyclopropyl-5-methyl-isothiazol-3-yl)-1H-indole-3-sulfonamide] gave an IC50 of 1110 nM.
As to `Cc1snc(NS(=O)(=O)c2c[nH]c3cc(Cl)ccc23)c1C#N` [Example 15, 6-chloro-N-(4-cyano-5-methyl-isothiazol-3-yl)-1H-indole-3-sulfonamide], the half-inhibitory concentration (IC50) was 499 nM.
`COc1c(NS(=O)(=O)c2c[nH]c3cc(Cl)ccc23)nsc1C` [Example 16, 6-chloro-N-(4-methoxy-5-methyl-isothiazol-3-yl)-1H-indole-3-sulfonamide] came in with an IC50 of 857 nM.
With `CCCc1snc(NS(=O)(=O)c2c[nH]c3cc(Cl)ccc23)c1OC` [Example 17, 6-chloro-N-(4-methoxy-5-propyl-isothiazol-3-yl)-1H-indole-3-sulfonamide] the figure was 78 nM; with `CCCc1onc(NS(=O)(=O)c2c[nH]c3cc(Cl)ccc23)c1C` [Example 18, 6-chloro-N-(4-methyl-5-propyl-isoxazol-3-yl)-1H-indole-3-sulfonamide], 815 nM.
On to `Cc1onc(NS(=O)(=O)c2c[nH]c3cc(Cl)ccc23)c1C` [Example 19, 6-chloro-N-(4,5-dimethylisoxazol-3-yl)-1H-indole-3-sulfonamide], for which the half-maximal inhibitory concentration (IC50) is 550 nM.
`Cc1onc(NS(=O)(=O)c2c[nH]c3cc(Cl)ccc23)c1Cl` [Example 20, 6-chloro-N-(4-chloro-5-methyl-isoxazol-3-yl)-1H-indole-3-sulfonamide] returned an IC50 of 404 nM.
With `Cc1onc(NS(=O)(=O)c2c[nH]c3cc(Cl)ccc23)c1Br` [Example 21, N-(4-bromo-5-methyl-isoxazol-3-yl)-6-chloro-1H-indole-3-sulfonamide] the figure was 315 nM.
